The species entered for the assay is Gallus gallus. Put plainly: Antiangiogenic activity at chorioallantoic membrane of chick embryo at 5 nmol per egg. The assay is classed as functional, organism-based.

Structures are written as SMILES.

One may read the inhibition as the share of the control response that was lost under treatment. Lower therefore signals a response near the control. The molecule `C[C@H]1[C@@H](CCO)O[C@@H]2O[C@]3(C)CC[C@H]4[C@H](C)CC[C@@H]1[C@@]24OO3` showed an inhibition of 63%.
On the same count and under the same terms, with `C[C@H]1[C@@H](CCCOC(=O)CC(=O)OCCC[C@H]2O[C@@H]3O[C@]4(C)CC[C@H]5[C@H](C)CC[C@@H]([C@H]2C)[C@@]35OO4)O[C@@H]2O[C@]3(C)CC[C@H]4[C@H](C)CC[C@@H]1[C@@]24OO3` the figure was 14%; with `C[C@H]1[C@@H](O)O[C@@H]2O[C@@]3(C)CC[C@H]4[C@H](C)CC[C@@H]1[C@@]24OO3`, 25%.
Same read-out and setting: the same measure for `C[C@@H]1CC[C@H]2[C@H](CBr)CO[C@@H]3O[C@]4(C)CC[C@@H]1[C@]32OO4`: 75%; for `C[C@H]1[C@@H](CCNC(=O)CC[C@H]2O[C@@H]3O[C@]4(C)CC[C@H]5[C@H](C)CC[C@@H]([C@H]2C)[C@@]35OO4)O[C@@H]2O[C@]3(C)CC[C@H]4[C@H](C)CC[C@@H]1[C@@]24OO3`: 43%; for `CCS[C@H]1O[C@@H]2O[C@]3(C)CC[C@H]4[C@H](C)CC[C@@H]([C@H]1C)[C@@]24OO3`: 17%.
On the same count and under the same terms, the same measure for `O=C1CC[C@H](N2C(=O)c3ccccc3C2=O)C(=O)N1`: 50%; for `C[C@H]1[C@@H](CCBr)O[C@@H]2O[C@]3(C)CC[C@H]4[C@H](C)CC[C@@H]1[C@@]24OO3`: 29%; for `C[C@@H]1CC[C@H]2[C@@H](CO)CO[C@@H]3O[C@]4(C)CC[C@@H]1[C@]32OO4`: 29%.
With `C[C@H]1[C@@H](CCc2ccc(C(=O)O)cc2)O[C@@H]2O[C@]3(C)CC[C@H]4[C@H](C)CC[C@@H]1[C@@]24OO3`, the inhibition turned out to be 29%.
Same read-out and setting: with `C[C@H]1[C@@H](CCN)O[C@@H]2O[C@]3(C)CC[C@H]4[C@H](C)CC[C@@H]1[C@@]24OO3` the figure was 29%.
Same read-out and setting: the same measure for `C[C@@H]1CC[C@H]2[C@@H](COC[C@H]3CO[C@@H]4O[C@]5(C)CC[C@H]6[C@H](C)CC[C@@H]3[C@@]46OO5)CO[C@@H]3OC4(C)CC[C@@H]1[C@]32OO4` (single isomer, unassigned): 71%; for `C[C@@H]1CC[C@H]2[C@@H](C)CO[C@@H]3O[C@]4(C)CC[C@@H]1[C@]32OO4`: 29%.
The same measure, in the same setting: the same measure for `C[C@@H]1CC[C@H]2[C@@H](C(=O)O)CO[C@@H]3O[C@]4(C)CC[C@@H]1[C@]32OO4`: 20%; for `C=C1CO[C@@H]2O[C@]3(C)CC[C@H]4[C@H](C)CC[C@@H]1[C@@]24OO3`: 29%.
As to `CCO[C@H]1O[C@@H]2O[C@@]3(C)CC[C@H]4[C@H](C)CC[C@@H]([C@H]1C)[C@@]24OO3`, the inhibition was 29%.
With `C[C@H]1[C@@H](CCS(=O)(=O)CC[C@H]2O[C@@H]3O[C@]4(C)CC[C@H]5[C@H](C)CC[C@@H]([C@H]2C)[C@@]35OO4)O[C@@H]2O[C@@]3(C)CC[C@H]4[C@H](C)CC[C@@H]1[C@@]24OO3`, the Activity result is “Toxic”.
Take `CO[C@@H]1[C@H](OC(=O)/C=C/C=C/C=C/C=C/C(=O)O)CC[C@]2(CO2)[C@H]1[C@@]1(C)O[C@@H]1CC=C(C)C`: the inhibition came to 57%.
Consider `C[C@H]1[C@@H](CC[S+]([O-])CC[C@H]2O[C@@H]3O[C@]4(C)CC[C@H]5[C@H](C)CC[C@@H]([C@H]2C)[C@@]35OO4)O[C@@H]2O[C@@]3(C)CC[C@H]4[C@H](C)CC[C@@H]1[C@@]24OO3`, for which the Activity result is “Toxic”.
With `CCCC[C@H]1O[C@@H]2O[C@]3(C)CC[C@H]4[C@H](C)CC[C@@H]([C@H]1C)[C@@]24OO3`, the inhibition worked out at 63%.
In turn, `C[C@H]1[C@@H](CCCC(=O)O)O[C@@H]2O[C@]3(C)CC[C@H]4[C@H](C)CC[C@@H]1[C@@]24OO3` gave an inhibition of 50%.
Still for that read-out and setting: the same measure for `C[C@@H]1CC[C@H]2[C@@H](C)C(=O)O[C@@H]3O[C@@]4(C)CC[C@@H]1[C@]32OO4`: 25%.
